{"source": "patent US7087620B2", "about": "“Liquid pharmaceutical formulations containing 3,7-diazabicyclo[3,3,1]nonane compounds and methods of treatment relating to anti-arrhythmic events” (Solvay Pharmaceuticals GmbH, priority 2002, dated 2006)", "key": {"[1]": {"system": "patients with atrial fibrillation or flutter", "test": "Placebo-controlled ascending dose study of intravenous tedisamil: conversion to normal sinus rhythm, overall (atrial fibrillation or flutter)", "type": "in vivo, human", "details": "for Conversion to NSR at any time within 2.5 hrs after start of infusion (%) / Conversion to NSR at any time within 2.5 hrs after start of infusion (converted/total): Overall, ITT patient sample, patients with DC cardioversion excluded", "experimental": "A Multi-Center, Double-Blind, Randomized, Placebo-Controlled, Sequential Ascending Dose Groups Study to evaluate the Efficacy and Safety of Intravenous Tedisamil in the Rapid Conversion to Normal Sinus Rhythm in Patients with Atrial Fibrillation or Flutter was performed.\n• Tedisamil (0.4 mg/kg body weight) • Tedisamil (0.6 mg/kg body weight) • Placebo • Dosages were given as a 30 minute intravenous infusion regimen. 1. Study Design\nThis multicenter trial was a double-blind, randomized, placebo-controlled, ascending dose groups study comparing the efficacy and safety of intravenous tedisamil treatment versus placebo in symptomatic patients with atrial fibrillation or flutter (>3 hours and <48 hours). The primary efficacy endpoint of this study was the termination of atrial fibrillation or flutter (for at least 60 seconds) within 2.5 hours after start of the infusion.\nFollowing screening and baseline assessments, eligible patients were randomized to tedisamil or placebo with a sequential dose escalation approach. In the first stage, patients received 0.4 mg tedisamil/kg body weight or placebo over a 30 minutes infusion period, with half the dose infused during the first 10 minutes and half the dose infused over the remaining 20 minutes. After interim safety evaluation, in the second stage, patients received 0.6 mg tedisamil/kg body weight or placebo, with the same infusion regimen.\nPatients were discharged from the telemetry unit 24 hours post infusion and safety follow up was to be obtained after 28 days. Blinded reviews of 12-lead ECGs (including 60 seconds rhythm strip) and 24 hour Holters to adjudicate the clinical endpoint (conversion to normal sinus rhythm) were performed centrally according to standard guidelines.\nTedisamil dihydrochloride, 0.4 mg/kg body weight, 0.6.mg/kg body weight was administered intravenously. The total infusion time was 30 minutes, with half the dose infused within 10 minutes, and half the dose infused within the remaining 20 minutes.\nThe percentage of patients converted to normal sinus rhythm (for at least 60 seconds) at any time within 2.5 hours after the initiation of the infusion of study drug.\nThe intent-to-treat patient sample was analyzed for efficacy. All tests were two-sided and a p-value <0.05 was considered significant. Differences in percentages of conversion were compared among the treatment groups using the Pearson chi-square statistic. Safety analysis was conducted on the safety patient sample. Numbers and percentages of patients with adverse events were calculated for each treatment group, using MedDRA preferred terms and body systems. Descriptive statistics were summarized by treatment group for changes from baseline in QT, heart rate and blood pressure.\nThis first clinical study was a Multi-Center, Double-Blind, Randomized, Placebo-Controlled, Sequential Ascending Dose Groups Study to evaluate the Efficacy and Safety of Intravenous Tedisamil in the Rapid Conversion to Normal Sinus Rhythm in Patients with Atrial Fibrillation or Flutter. The active ingredient used was tedisamil dihydrochloride. The study was designed as a phase II study and executed in 35 to 40 centers in 3 to 4 countries. Study duration: Screening: up to 48 hours; treatment (in-patient): single 30-minute infusion; safety follow up: 24 hours (in-patient) with continuous telemetry and 28 day safety follow up.\nThe following methodology was applied: A multi-center, double-blind, randomized, placebo-controlled, sequential ascending dose groups study to evaluate the efficacy and safety of intravenous tedisamil versus placebo. The study drug was infused over 30 minutes, receiving half the dose within 10 minutes and half the dose within the remaining 20 minutes. The first patient group received 0.4 mg/kg bodyweight (bw), infused as 0.2 mg/kg bw within 10 minutes, continued with 0.2 mg/kg bw infused within 20 minutes. […]"}, "[2]": {"test": "Two step infusion study in healthy male subjects: pharmacokinetics (Tedisamil plasma concentration)", "type": "in vivo", "details": "human; for Tmax: male, iv, 0.4 mg/kg, after start of infusion, 0.4 mg/kg iv two step infusion", "experimental": "A double-blind, placebo-controlled, randomized, single iv dose, two periods cross-over study to assess the safety, tolerability, pharmacodynamics and pharmacokinetics during and following a two step infusion of Tedisamil in healthy male subjects was performed with the following drug and dosages: Tedisamil dihydrochloride/0.4 mg/kg body weight infused over 30 minutes.\nSubjects were included in the study only if they were healthy males, their age was in the range of 18-40 years (both inclusive), their body mass index (BMI) was between 18 kg/m^2 and 28 kg/m^2. Test product, dose and mode of administration: Tedisamil dihydrochloride; Strength: 2 mg/ml; Dose: 0.4 mg/kg body weight infused over 30 minutes, with half of the dose infused over 10 minutes and half of the dose infused over the remaining 20 minutes. Route: intravenous.\nBlood samples for determination of Tedisamil plasma concentration were taken at several time points during and following intravenous drug administration in both study periods. The following pharmacokinetic parameters were determined: AUC(0-inf), AUC(0-t), Cmax, Tmax, t1/2, λz, Vss, CL, MRT and the number of data points considered for the determination of terminal half life.\nGeometric means and corresponding 90% confidence intervals were calculated for the plasma concentration of tedisamil at each time-point, for AUC, AUC(0-t), CL, and Cmax.\nArithmetic means and corresponding 90% confidence intervals were calculated for the other variables (Vss, λz, t1/2, MRT). Tmax was described using minimum, median, maximum, and frequency counts. Individual and mean plasma-concentration versus time curves were plotted using both linear and semi-logarithmic scale."}}, "note": "Where two headings read alike, the source gives them in different places."}
{"smiles": "C1CCC2(C1)C1CN(CC3CC3)CC2CN(CC2CC2)C1", "note": "[Tedisamil, N,N′-dicyclopropylmethyl-9,9-tetramethylene-3,7-diazabicyclo[3,3,1]nonane]", "values": [{"measurement": "Conversion to NSR at any time within 2.5 hrs after start of infusion (%)", "setting": "[1]; Female, 0.4 mg/kg", "value": 31.6, "unit": "%"}, {"measurement": "Conversion to NSR at any time within 2.5 hrs after start of infusion (converted/total)", "setting": "[1]; Female, 0.4 mg/kg", "value": "6/19"}, {"measurement": "Conversion to NSR at any time within 2.5 hrs after start of infusion (%)", "setting": "[1]; Female, 0.6 mg/kg", "value": 36.4, "unit": "%"}, {"measurement": "Conversion to NSR at any time within 2.5 hrs after start of infusion (converted/total)", "setting": "[1]; Female, 0.6 mg/kg", "value": "8/22"}, {"measurement": "Conversion to NSR at any time within 2.5 hrs after start of infusion (%)", "setting": "[1]; Male, 0.4 mg/kg", "value": 45.2, "unit": "%"}, {"measurement": "Conversion to NSR at any time within 2.5 hrs after start of infusion (converted/total)", "setting": "[1]; Male, 0.4 mg/kg", "value": "19/42"}, {"measurement": "Conversion to NSR at any time within 2.5 hrs after start of infusion (%)", "setting": "[1]; Male, 0.6 mg/kg", "value": 61.3, "unit": "%"}, {"measurement": "Conversion to NSR at any time within 2.5 hrs after start of infusion (converted/total)", "setting": "[1]; Male, 0.6 mg/kg", "value": "19/31"}, {"measurement": "Gender difference in conversion rate", "setting": "[1]; first study (Phase II), tedisamil dihydrochloride", "value": "male patients show a higher conversion rate compared to women"}, {"measurement": "Conversion rates on extension of infusion beyond the times indicated", "setting": "[1]; in vivo", "value": "did not produce higher conversion rates"}, {"measurement": "Average time to cardioversion after the start of tedisamil administration", "setting": "[1]; patients with atrial fibrillation or flutter of up to 48 hours duration, iv two-step infusion", "value": 35, "unit": "min"}, {"measurement": "Conversion of atrial fibrillation and flutter to NSR (in words)", "setting": "[1]; two-step infusion regimen", "value": "effective in conversion of atrial fibrillation and flutter to NSR"}, {"measurement": "AUC(0-inf)", "setting": "[2]; 0.4 mg/kg tedisamil dihydrochloride iv, two step infusion over 30 minutes, read-out: AUC(0-inf), Geom. Mean", "value": 1720, "unit": "ng·h/mL"}, {"measurement": "AUC(0-t)", "setting": "[2]; 0.4 mg/kg tedisamil dihydrochloride iv, two step infusion over 30 minutes, read-out: AUC(0-t), Geom. Mean", "value": 1670, "unit": "ng·h/mL"}, {"measurement": "clearance", "setting": "[2]; 0.4 mg/kg tedisamil dihydrochloride iv, two step infusion over 30 minutes, read-out: CL, Geom. Mean", "value": 315, "unit": "mL/min"}, {"measurement": "Cmax", "setting": "[2]; 0.4 mg/kg tedisamil dihydrochloride iv, two step infusion over 30 minutes, read-out: Cmax, Geom. Mean", "value": 905, "unit": "ng/mL"}, {"measurement": "half-life", "setting": "[2]; 0.4 mg/kg tedisamil dihydrochloride iv, two step infusion over 30 minutes, read-out: t½, Arithmetic mean (converted)", "value": 330, "unit": "min"}, {"measurement": "Tmax", "setting": "[2]; read-out: Time of peak plasma concentration (Tmax), median (converted)", "value": 12.5, "unit": "min"}, {"measurement": "Tmax", "setting": "[2]; read-out: Time of peak plasma concentration (Tmax), range", "value": "5 to 75", "unit": "min"}]}
